Measurements taken from patent US4174407A, “Antiviral agent” (Sumitomo Chemical Company, Limited, priority 1978, dated 1979).
Converted amounts (≈) assume the structure as drawn. Structures can show the parent of a compound that is named as a salt. Where two headings read alike, the source gives them in different places.

Assays:
[1] = system: herpes simplex type 1 (HF strain); experiment: Tube dilution method, virus-induced cytopathic effect in tissue culture (antiviral MIC); assay type: cell-based; conditions: for MIC: read-out: Minimum virus growth inhibition concentration (MIC)
Influenza Ao PR/8 = assay type: in vivo, ddY male mice; conditions: 7 days after infection, control 4.8
[2] = Cytotoxicity in KB cells by microscopic examination (MCC); conditions: human
[3] = Cytotoxicity in HeLa cells by microscopic examination (MCC); conditions: human
[4] = system: herpes simplex virus type 1 (HF strain); experiment: Effects on herpeskeratitis, eye lotion in rabbits (cure period and toxicity); assay type: in vivo; conditions: 0.5% eye lotion in 1.4% polyvinyl alcohol, every two hours, five times a day, 7 days; rabbit eye
Description: (§1) Therapeutic effects were determined by using two experimental infections as follows.
The corneal epithelium of each eye of rabbit was anesthetized and scratched, then each eye was infected with herpes simplex virus type 1 (HF strain). One of each infected eyes was used for treatment with the compound A and the other was used for viral control. One half % eye lotion of the compound A in 1.4% polyvinyl alcohol was applied every two hours, five times a day during 7 days 12 hr. after virus infection. Each eye was daily examined and scored the lesion on the conjunctiva, cornea and the iris for 7 days. In this score 0 means normal and 4 means maximal severity. The eyes scratched but not infected with virus were similarly treated with compound A in parallel as toxicity control.

[5] = system: herpes simplex virus type 1 HF strain; experiment: Effects on herpesencephalitis, intracerebrally infected mice; assay type: in vivo; conditions: for Survival ratio (no. of survivors/no. of total mice): 21st day, control 0/10
Description: as §1
Mice were anesthetized with ether and were infected intracerabrally (i.c.) with 30 LD50 of herpes simplex virus type 1 HF strain. Infected mice were treated with various therapeutic schedules. The antiviral effects of the compound A was determined by comparing the number of survivors at 3 weeks after viral infection and the mean survival days of the drug-treatedand placebo-treated animals.
(a) Dose of administration
(b) Schedule of administration of each route was as follows, i.c. (intracerebrally): single administration simultaneously with virus infection p.o (per os): twice administration per day during 8.5 days from 4 hr. after virus infection s.c. (subcutaneously): twice administration per day during 8.5 days from 4 hr. after virus infection i.v. (intravenously): single administration at 3 hr. after virus infection
(c) The animals were examined for 21 days and deaths occuring were recorded.
(d) Survivors at 21st day.

herpes virus = experiment: Antiviral activities on herpes virus (general statement)
influenza virus = experiment: Antiviral activities on influenza virus (general statement)
Newcastle disease virus = conditions: Aigami et al., J. Med. Chem. 19, 536, 1976; cited from earlier work
in vivo = conditions: mouse
DNA virus = conditions: general knowledge; cited from earlier work
[6] = host cells KB, 1000 TCD50, 72 hr, 37° C.

NC12CC3CC(CC(C3)C1)C2 [Amantadine HCl, amantadine hydrochloride, reference compound]
MIC ([1]; Human alphaherpesvirus 1, 72 h): 50 µg/mL | Minimum virus growth inhibition concentration (MIC) [1, 6]: 50 µg/mL | Lung Lesion Score (Influenza Ao PR/8; 10 mg/kg s.c., * P<0.05 (Student's t test)): 4.3 | Lung Lesion Score (Influenza Ao PR/8; 25 mg/kg s.c., * P<0.05 (Student's t test)): 4.1 | Lung Lesion Score (Influenza Ao PR/8; 50 mg/kg s.c., * P<0.05 (Student's t test)): 4.0 | MCC at 72 h [2]: > 50 µg/mL | MCC at 72 h [3]: > 50 µg/mL

NC12CCCC3CC(CCC31)C2 (centres unmarked) [Compound A, 3-Amino-4-homoisotwistane hydrochloride]
MIC ([1]; Human alphaherpesvirus 1, host cells HeLa, 1000 TCD50, 72 hr, 37° C.): 5 µg/mL | Minimum virus growth inhibition concentration (MIC) [1, 6]: 5 µg/mL | cure period as compared with control [4]: did not prolong the cure period as compared with control | Survival ratio (no. of survivors/no. of total mice) ([5]; 5 mg/kg i.c., single, simultaneously with virus infection): 7/10 | Mean no. of survival days ([5]; 5 mg/kg i.c., single, simultaneously with virus infection, control 5.6): 7.2 days | Survival ratio (no. of survivors/no. of total mice) ([5]; 10 mg/kg i.v., single at 3 hr. after infection): 2/10 | Mean no. of survival days ([5]; 10 mg/kg i.v., single at 3 hr. after infection, control 6.2): 8.0 days | Survival ratio (no. of survivors/no. of total mice) ([5]; 100 mg/kg p.o., twice per day during 8.5 days from 4 hr. after infection): 3/10 | Mean no. of survival days ([5]; 100 mg/kg p.o., twice per day during 8.5 days from 4 hr. after infection, control 5.9): 7.8 days | Survival ratio (no. of survivors/no. of total mice) ([5]; 100 mg/kg s.c., twice per day during 8.5 days from 4 hr. after infection): 5/10 | Mean no. of survival days ([5]; 100 mg/kg s.c., twice per day during 8.5 days from 4 hr. after infection, control 5.8): 7.6 days | Lung Lesion Score (Influenza Ao PR/8; 7.5 mg/kg s.c., no significance mark): 4.6 | Lung Lesion Score (Influenza Ao PR/8; 15 mg/kg s.c., * P<0.05 (Student's t test)): 4.0 | Lung Lesion Score (Influenza Ao PR/8; 30 mg/kg s.c., * P<0.05 (Student's t test)): 4.2 | antiviral effects on herpes virus and so on, compared with tromantadine (herpes virus; comparison with tromantadine): much superior to those of tromantadine | antiviral activities on herpes virus (herpes virus; general statement): very strong antiviral activities | antiviral activities on influenza virus (influenza virus): very strong antiviral activities | antiviral effects on Newcastle disease virus (Newcastle disease virus): antiviral effects on Newcastle disease virus | LD50 (in vivo; iv): 32 mg/kg | LD50 (in vivo; po): 300 mg/kg | MCC at 72 h [2]: 50 µg/mL | MCC at 72 h [3]: 50 µg/mL

CN(C)CCOCC(=O)NC12CC3CC(CC(C3)C1)C2 [Tromantadine, tromantadine]
MIC ([1]; Human alphaherpesvirus 1, host cells KB, 1000 TCD50, 72 hr, 37° C.): 25 µg/mL (≈ 89.2 µM) | anti DNA viral activities (DNA virus): known to show an anti DNA viral activities | MCC at 72 h [2]: > 50 µg/mL
